Experimental data taken from PubChem BioAssay (NCI).
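Step 1: Grow cells in 96-well plates. Step 2: Expose to compound for 48 hours at 5 concentrations. Step 3: Interpolate endpoints linearly; if unreached, use highest concentration. GI50 is the concentration that inhibits growth by half. At the TGI there is no net growth.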

Tests used:
Assay in all cases: NCI tumour cell line growth inhibition, 48 h
[1] = tested on: MDA-MB-468 breast
[2] = tested on: HCT-15 colon
[3] = tested on: NCI/ADR-RES ovarian
[4] = tested on: SK-MEL-5 melanoma
[5] = tested on: M14 melanoma
[6] = tested on: A498 renal
[7] = tested on: OVCAR-3 ovarian
[8] = tested on: IGROV1 ovarian
[9] = tested on: SNB-19 CNS
[10] = tested on: NCI-H522 lung
[11] = tested on: OVCAR-5 ovarian
[12] = tested on: RXF 393 renal
[13] = tested on: SK-OV-3 ovarian
[14] = tested on: DU-145 prostate
[15] = tested on: HL-60(TB) leukemia
[16] = tested on: SR leukemia
[17] = tested on: BT-549 breast
[18] = tested on: U251 CNS
[19] = tested on: COLO 205 colon
[20] = tested on: SK-MEL-28 melanoma
[21] = tested on: SK-MEL-2 melanoma
[22] = tested on: PC-3 prostate
[23] = tested on: NCI-H23 lung
[24] = tested on: MOLT-4 leukemia
[25] = tested on: TK-10 renal
[26] = tested on: LOX IMVI melanoma
[27] = tested on: SN12C renal
[28] = tested on: HOP-62 NSCLC
[29] = tested on: HCT-116 colon
[30] = tested on: HOP-92 NSCLC
[31] = tested on: A549 NSCLC
[32] = tested on: KM12 colon
[33] = tested on: UACC-257 melanoma
[34] = tested on: UACC-62 melanoma
[35] = tested on: MDA-MB-231 breast
[36] = tested on: K-562 leukemia
[37] = tested on: MCF7 breast
[38] = tested on: NCI-H226 lung
[39] = tested on: T-47D breast
[40] = tested on: SNB-75 CNS
[41] = tested on: HCC-2998 colon
[42] = tested on: 786-0 renal
[43] = tested on: SF-539 CNS
[44] = tested on: SF-295 CNS
[45] = tested on: OVCAR-8 ovarian

Structure (SMILES): COc1ccc(C2=NN(C(=O)c3cc(OC)c(OC)c(OC)c3)C(c3ccc(N(C)C)cc3)C2)cc1 (stereo not given)
- GI50 [1]: 0.236 µM
- TGI [1]: 0.644 µM

Structure (SMILES): Cn1cc(C2=C(c3cn(C)c4ccccc34)C(=O)NC2=O)c2ccccc21
- GI50 [1]: 0.65 µM
- TGI [1]: > 25 µM

Structure (SMILES): CC(=O)Oc1ccc(/C(=C(\C)c2ccc(Cl)cc2)c2ccc(OCCN3CCCCC3)cc2)cc1
- GI50 [1]: 1.45 µM
- TGI [1]: 3.21 µM

Structure (SMILES): COc1cc(/C=C/C(=O)N2CCN(C(=O)c3cc(OC)c(OC)c(OC)c3)CC2)ccc1OCCCOc1cc2c(cc1OC)C(=O)N1CCC[C@H]1C=N2
- GI50 [1]: 0.102 µM
- TGI [1]: 0.336 µM

Structure (SMILES): CCN(CC)C1CCC(Nc2c(C(C)=O)cnc3ccc(-c4ccc(O)c(Cl)c4)cc23)CC1 (stereo not given)
- GI50 [1]: 0.871 µM
- TGI [1]: 15.8 µM

Structure (SMILES): Nc1nn2c(-c3cc4cc(Br)ccc4oc3=O)ccnc2c1N=Nc1ccc(Br)cc1
- GI50 [2]: 2.58 µM
- TGI [2]: 8.23 µM
- GI50 [3]: 2.22 µM
- TGI [3]: 5.01 µM
- GI50 [4]: 3.25 µM
- TGI [4]: > 100 µM
- GI50 [5]: 3.06 µM
- TGI [5]: > 100 µM
- GI50 [6]: 1.81 µM
- TGI [6]: 3.92 µM
- GI50 [7]: 2.33 µM
- TGI [7]: 6.37 µM
- GI50 [8]: 2.72 µM
- TGI [8]: 8.76 µM
- GI50 [9]: 2.84 µM
- TGI [9]: 10.9 µM
- GI50 [10]: 2.2 µM
- TGI [10]: 6.55 µM
- GI50 [11]: 2.11 µM
- TGI [11]: 5.21 µM
- GI50 [12]: 2.25 µM
- TGI [12]: 5.37 µM
- GI50 [13]: 2.62 µM
- TGI [13]: 6.61 µM
- GI50 [14]: 3.24 µM
- TGI [14]: > 100 µM
- GI50 [15]: > 100 µM
- TGI [15]: > 100 µM
- GI50 [16]: 5.12 µM
- TGI [16]: > 100 µM
- GI50 [17]: 2.94 µM
- TGI [17]: 8.72 µM
- GI50 [18]: 2.14 µM
- TGI [18]: 5.25 µM
- GI50 [19]: 3.34 µM
- TGI [19]: > 100 µM
- GI50 [20]: 2.18 µM
- TGI [20]: 4.93 µM
- GI50 [21]: 3.68 µM
- TGI [21]: 17.1 µM
- GI50 [22]: 1.99 µM
- TGI [22]: 5.09 µM
- GI50 [1]: 2.04 µM
- TGI [1]: 5.47 µM
- GI50 [23]: 2.06 µM
- TGI [23]: 4.4 µM
- GI50 [24]: > 100 µM
- TGI [24]: > 100 µM
- GI50 [25]: 2.34 µM
- TGI [25]: 5.08 µM
- GI50 [26]: 2.09 µM
- TGI [26]: 4.46 µM
- GI50 [27]: 1.94 µM
- TGI [27]: 3.87 µM
- GI50 [28]: 1.99 µM
- TGI [28]: 4.16 µM
- GI50 [29]: 1.75 µM
- TGI [29]: 3.44 µM
- GI50 [30]: 2 µM
- TGI [30]: 4.61 µM
- GI50 [31]: 2.42 µM
- TGI [31]: 6.86 µM
- GI50 [32]: 3.76 µM
- TGI [32]: > 100 µM
- GI50 [33]: 3.06 µM
- TGI [33]: > 100 µM
- GI50 [34]: 3.24 µM
- TGI [34]: > 100 µM
- GI50 [35]: 1.73 µM
- TGI [35]: 3.4 µM
- GI50 [36]: 3.28 µM
- TGI [36]: > 100 µM
- GI50 [37]: 2.89 µM
- TGI [37]: 10.1 µM
- GI50 [38]: 1.96 µM
- TGI [38]: 4.58 µM
- GI50 [39]: 2.29 µM
- TGI [39]: 6.8 µM
- GI50 [40]: 1.81 µM
- TGI [40]: 4.62 µM
- GI50 [41]: 3.74 µM
- TGI [41]: > 100 µM
- GI50 [42]: 1.76 µM
- TGI [42]: 3.35 µM
- GI50 [43]: 1.73 µM
- TGI [43]: 3.13 µM
- GI50 [44]: 1.86 µM
- TGI [44]: 4.01 µM
- GI50 [45]: 2.81 µM
- TGI [45]: 9.79 µM
